The values that follow are results of earlier work, collected in patent US20260124184A1, “ONCE DAILY ALDOSTERONE SYNTHASE INHIBITOR (R)-(+)-5-(P-CYANOPHENYL)-5,6,7,8-TETRAHYDROIMIDAZO[L,5-A]PYRIDINE” (priority 2022, published 2026).

The series addresses aldosterone synthase (Homo sapiens, UniProt P19099). The note with it: ee of (R) form ≥99%; per WO 2018/078049; cited from earlier work.

Chain of aldosterone synthase (P19099 25-503, species assumed): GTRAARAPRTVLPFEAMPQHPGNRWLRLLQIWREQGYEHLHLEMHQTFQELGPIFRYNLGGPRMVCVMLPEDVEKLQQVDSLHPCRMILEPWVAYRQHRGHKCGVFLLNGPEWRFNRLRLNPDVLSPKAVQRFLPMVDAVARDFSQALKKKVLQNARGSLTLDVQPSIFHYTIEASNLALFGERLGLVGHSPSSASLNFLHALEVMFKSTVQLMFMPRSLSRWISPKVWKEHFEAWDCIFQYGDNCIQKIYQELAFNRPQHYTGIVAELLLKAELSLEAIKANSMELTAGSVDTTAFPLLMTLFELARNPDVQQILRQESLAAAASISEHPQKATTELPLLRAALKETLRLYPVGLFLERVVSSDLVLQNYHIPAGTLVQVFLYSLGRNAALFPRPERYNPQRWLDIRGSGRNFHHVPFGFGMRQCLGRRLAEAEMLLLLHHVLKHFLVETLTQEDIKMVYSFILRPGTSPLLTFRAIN

For `N#Cc1ccc([C@H]2CCCc3cncn32)cc1` [(R)-(+)-5-(p-cyanophenyl)-5,6,7,8-tetrahydroimidazo[1,5-a]pyridine], the “aldosterone synthase inhibition, potency” value was “low nanomolar” and the “aldosterone synthase inhibition, selectivity” value is on record as “selective”.
